Source: US20040171086A1, “Selective modulation of TLR-mediated biological activity” (3M Innovative Properties Company, priority 2003, published 2004)

Assays:
[1] = target: T1, TLR7 (Homo sapiens, UniProt Q9NYK1); test: IFN-α1-luciferase reporter assay in genetically modified Namalwa cells, TLR7; format: cell-based; set-up: expressed in transfected cells; host or cells: Namalwa (ATCC CRL-1432); conditions: 10 μM IRM, 18 hours
T1 sequence (Q9NYK1 27-1049): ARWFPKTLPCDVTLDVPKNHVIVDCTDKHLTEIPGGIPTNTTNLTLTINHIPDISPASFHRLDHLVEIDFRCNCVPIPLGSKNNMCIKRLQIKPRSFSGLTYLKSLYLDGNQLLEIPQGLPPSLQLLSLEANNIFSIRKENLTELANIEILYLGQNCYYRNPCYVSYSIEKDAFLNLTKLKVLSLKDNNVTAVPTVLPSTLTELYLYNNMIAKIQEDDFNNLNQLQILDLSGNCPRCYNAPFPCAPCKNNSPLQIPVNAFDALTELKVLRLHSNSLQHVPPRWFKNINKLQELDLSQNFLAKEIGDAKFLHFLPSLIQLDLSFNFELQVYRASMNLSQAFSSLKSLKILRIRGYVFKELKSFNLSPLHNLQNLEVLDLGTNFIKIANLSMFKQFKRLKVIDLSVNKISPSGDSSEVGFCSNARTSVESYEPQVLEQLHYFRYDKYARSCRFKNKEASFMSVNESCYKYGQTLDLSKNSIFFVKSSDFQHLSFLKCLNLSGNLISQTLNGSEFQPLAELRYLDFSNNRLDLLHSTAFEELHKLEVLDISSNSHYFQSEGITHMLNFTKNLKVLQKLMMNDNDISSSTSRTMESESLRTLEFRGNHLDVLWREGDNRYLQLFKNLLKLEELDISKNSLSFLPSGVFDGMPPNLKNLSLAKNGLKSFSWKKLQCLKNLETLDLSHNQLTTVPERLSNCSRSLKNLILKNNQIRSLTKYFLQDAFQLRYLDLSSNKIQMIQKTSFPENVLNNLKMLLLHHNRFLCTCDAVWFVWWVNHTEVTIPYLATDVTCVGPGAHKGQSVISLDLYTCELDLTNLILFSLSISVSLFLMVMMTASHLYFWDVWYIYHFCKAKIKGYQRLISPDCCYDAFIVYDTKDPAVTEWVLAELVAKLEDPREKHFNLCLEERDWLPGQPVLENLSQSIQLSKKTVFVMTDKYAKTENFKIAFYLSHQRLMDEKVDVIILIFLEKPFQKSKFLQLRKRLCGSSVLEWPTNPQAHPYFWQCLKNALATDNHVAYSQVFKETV
Experimental: Results are shown in Table 6 and are expressed as fold induction of IFN-α1 —induced luciferase signal, again with respect to a vehicle control.
The assay identified TLR6-selective compounds (i.e., compounds that modulate TLR6-mediated activity, but not TLR7-mediated activity), TLR7-selective compounds (compounds that modulate TLR7-mediated activity, but not TLR6-mediated activity), and compounds that modulate cellular activity through both TLR6 and TLR7.
Unless otherwise indicated, all incubations were performed at 37° C. with 5% CO2 at 98% humidity.
Culture medium was prepared from complete RPMI 1640 medium (BioSource International, Inc., Camarillo, Calif.). Fetal bovine serum (Atlas Biologicals, Inc., Ft. Collins, Colo.) was added to a final concentration of 7.5% (vol/vol); L-glutamine (BioSource International, Inc.) was added to 5 mM; and sodium pyruvate (BioSource International, Inc.) was added to 1 mM.
Namalwa cells were grown by incubation in culture medium overnight. Cells were harvested by centrifugation in a tabletop centrifuge (1200 RPM for 5 minutes), and then resuspended in phosphate buffered sucrose to a concentration of 1.3×10^7 cells/mL. […]
The electroporated cells were suspended in 10 mLs of culture medium and incubated overnight. Dead cells and debris were removed after 24 hours using a MACS Dead Cell Removal kit (Miltenyi Biotec, Auburn, Calif.). Cells were resuspended in 10 mL of culture medium and incubated for an additional 24 hours.
Transfected cells were selected by adding G418 (Promega Corp., Madison, Wis.) to a final concentration of 1 mg/mL and incubating the cells for seven days.
The selected transfected cells were counted and resuspended to a concentration of 1×10^6 cell per mL in culture medium. 100 μl aliquots of cells were placed in the wells of a white-walled, white-bottomed 96-well plate (Corning, Inc., Corning, N.Y.). 1.0 μL of an IRM compound from Table 1 (prepared at 1 mM in 100% DMSO) was added to some cell aliquots so that the final concentration of IRM compound was 10 μM. As a positive control, some cell aliquots were incubated with Sendai virus instead of IRM compound. As a negative control, some cell aliquots were incubated with DMSO without IRM compound. In all cases, the cells were incubated for 18 hours.
The plates were equilibrated to room temperature before one volume of reconstituted LucLight Plus (Packard Instruments, Meriden, Conn.) was added to each aliquot of cells. Each well of the plate was read on an LJL Analyst (LJL Biosystems, Inc., Sunnyvale, Calif.) set with a 5 minute dark adapt. Results are shown in Table 6 and are expressed as fold increase of the IFN-αl—induced luciferase signal compared to a DMSO control.

[2] = system: myeloid dendritic cells (mDCs); test: Activation of blood myeloid dendritic cells (CD80/HLA-DR staining, flow cytometry); format: cell-based, human; conditions: two donors; 1 μM IRM or 3 μM CpG2216, 16-24 hours; HLA-DR positive with increased CD80; FIG. 1
Experimental: The blood myeloid dendritic cells (mDC) were isolated from the BDCA-4 negative cell fraction using the Miltenyi Microbead technology system (Miltenyi BioTec, Auburn, Calif.). Cells were resuspended in 4° C. separation buffer (PBS- pH 7.2, 0.5% BSA-2.5 gm, 2 mM 0.5M EDTA) at 20 μl per 10^7 total cells. […] The cells were resuspended in 500 μL of separation buffer per 10^8 total cells. […] BDCA-1^+mDCs were enriched using the Miltenyi Automacs POSSELD software. The cells retained in the column were eluted into a sterile 50 mL polystyrene conical tube.
(§1) Compounds, reconstituted in dimethyl sulfoxide (DMSO, sterile cell culture grade, Sigma Chemical Co., St. Louis, Mo.) were added at 2× their final concentration to a 96-well flat-bottom sterile tissue culture polystyrene plate (Benton Dickinson Labware, Franklin Lakes, N.J.). Cells were then added at 2× the final concentration (final cell concentration is 1×10^6 cells/mL). Plates were incubated for 16-24 hours at 37° C., 5% CO2. After incubation, plates were centrifuged at 1000 RPM for 10 minutes at 25° C. Supernatants were transferred to a 0.75 mL sterile polypropylene Matrix box (Matrix, Hudson, N.Y.) and stored at −20° C. for future cytokine analysis.

[3] = system: plasmacytoid dendritic cells (pDCs); test: Activation of plasmacytoid dendritic cells (CD80/HLA-DR staining, flow cytometry); format: cell-based, human; conditions: two donors; 1 μM IRM or 3 μM CpG2216, 16-24 hours; HLA-DR positive with increased CD80; FIG. 2
Experimental: The cells were resuspended in 500 μL of separation buffer per 10^8 total cells. […] The cells retained in the column were eluted into a sterile 50 mL polystyrene conical tube.
as §1

Row | Structure (SMILES) | TLR7: fold increase of the IFN-α1-induced luciferase signal compared to a DMSO control [1] [fold increase] | activation of myeloid dendritic cells (mDCs) in vitro [2] | activation of plasmacytoid dendritic cells (pDCs) in vitro [3]
1 | CCOCc1nc2c(N)nc3ccccc3c2n1CC(C)C [IRM1, 2-(ethoxymethyl)-1-(2-methylpropyl)-1H-imidazo[4,5-c]quinolin-4-amine] | 2.43 |  | 
2 | COCCc1nc2c(N)nc3ccccc3c2n1CCOCCN(C)C(=O)C1CCCCC1 [IRM3, N-(2-{2-[4-amino-2-(2-methoxyethyl)-1H-imidazo[4,5-c]quinolin-1-yl]ethoxy}ethyl)-N-methylcyclohexanecarboxamide] | 2.86 |  | 
3 | CCCCc1nc2c(N)nc3ccccc3c2n1CCCCCS(C)(=O)=O [IRM6, 2-butyl-1-[5-(methylsulfonyl)pentyl]-1H-imidazo[4,5-c]quinolin-4-amine] | 3.09 |  | 
4 | CCc1nc2c(N)nc3ccccc3c2n1CCCCNC(=O)C1CCCCC1 [IRM8, N-[4-(4-amino-2-ethyl-1H-imidazo[4,5-c]quinolin-1-yl)butyl]cyclohexanecarboxamide] | 2.89 |  | 
5 | CCc1nc2c(N)nc3ccccc3c2n1CCCCSc1cc(Cl)cc(Cl)c1 [IRM14, 1-{4-[(3,5-dichlorophenyl)thio]butyl}-2-ethyl-1H-imidazo[4,5-c]quinolin-4-amine] | 1.40 |  | 
6 | CCOCc1nc2c(N)nc3c(c2n1CC(C)(C)O)CCCC3 [IRM16, 4-amino-2-ethoxymethyl-α,α-dimethyl-6,7,8,9-tetrahydro-1H-imidazo[4,5-c]quinoline-1-ethanol] | 2.96 | activated | activated
7 | COCCc1nc2c(N)nc3ccccc3c2n1CCOCCNC(=O)Nc1ccccc1 [IRM19, N-(2-{2-[4-amino-2-(2-methoxyethyl)-1H-imidazo[4,5-c]quinolin-1-yl)ethoxy}ethyl)-N′-phenylurea] | 2.63 |  | 
8 | CCC(C)NC(=S)NCCn1c(CCOC)nc2c(N)nc3ccccc3c21 (centres unmarked) [IRM21, N-{2-[4-amino-2-(2-methoxyethyl)-1H-imidazo[4,5-c]quinolin-1-yl]ethyl}-N′-sec-butylthiourea] | 3.48 |  | 
9 | COCCc1nc2c(N)nc3c(c2n1CC(C)(C)NS(C)(=O)=O)CCCC3 [IRM22, N-{2-[4-amino-2-(2-methoxyethyl)-6,7,8,9-tetrahydro-1H-imidazo[4,5-c]quinolin-1-yl]-1,1-dimethylethyl}methanesulfonamide] | 3.59 |  | 
